The values that follow are results of earlier work, collected in patent US20060078541A1, “Method and formula for stem cells' stimulation, targeting release, trafficking and homing” (priority 2004, published 2006).

For this series the following is noted: in vivo.

`[Cs+]` [Cesium ions]: the assimilated is around 100%. The biological half life (human) is given as 50-60 days.
